Data taken from patent US10117858B2, “Pyridine and pyrazine derivative for the treatment of CF” (Novartis AG, priority 2010, dated 2018).
pEC50: −log10 of the molar value.

target: ΔF508-CFTR (Homo sapiens (Human), UniProt P13569, DEL508-508); test: CFTR potentiator assays (membrane potential, IonWorks Quattro, Ussing chamber ion transport); patent does not say which gave the EC50; format: cell-based; conditions: Table 1, representative compounds; data measurements described above; read-out: EC50
Text: CFTR activity can be quantified by measuring the transmembrane potential. The means for measuring the transmembrane potential in a biological system can employ a number of methods including electrophysiological and optical fluorescence-based membrane potential assays.
The optical membrane potential assay utilises a negatively charged potentiometric dye, such as the FLIPR membrane potential dye (FMP) (see Baxter D F, Kirk M, Garcia A F, Raimondi A, Holmqvist M H, Flint K K, Bojanic D, Distefano P S, Curtis R, Xie Y. ‘A novel membrane potential-sensitive fluorescent dye improves cell-based assays for ion channels.’ J Biomol Screen. 2002 February; 7(1):79-85) which when extracellular is bound to a quenching agent. Upon cellular depolarisation the negatively charged dye redistributes to the intracellular compartment, unbinding from the membrane impermeant quench agent, yielding an increase in fluorescence. This change in fluorescence is proportional to the change in transmembrane potential which can result from the activity of CFTR. The changes in fluorescence can be monitored in real time by an appropriately equipped fluorescence detector such as the FLIPR (fluorometric imaging plate reader) in 96 or 384-well microtitre plates.
Chinese hamster ovary (CHO) cells stably expressing the ΔF508-CFTR channel were used for membrane potential experiments. Cells were maintained at 37° C. in 5% v/v CO2 at 100% humidity in Modified Eagles medium (MEM) supplemented with 8% v/v foetal calf serum, 100 µg/ml methotrexate and 100 U/ml penicillin/streptomycin. Cells were grown in 225 cm^2 tissue culture flasks. For membrane potential assays cells were seeded into 96 well plates at 40,000 cells per well, allowed to adhere and then maintained at 26° C. for 48 h to facilitate channel insertion.
The membrane potential screening assay utilised a low chloride ion containing extracellular solution (˜5 mM) combined with a double addition protocol. The first addition was of buffer with or without test compound followed 5 minutes later by an addition of forskolin (1-20 μM)—this protocol favours maximum chloride efflux in response to ΔF508-CFTR activation. The ΔF508-CFTR mediated chloride ion efflux leads to a membrane depolarisation which is optically monitored by the FMP dye.
Low chloride extracellular (mM): 120 Na-gluconate, 1.2 CaCl2, 3.3 KH2PO4, 0.8 K2HPO4, 1.2 MgCl2, 10.0 D-glucose, 20.0 HEPES, pH 7.4 with NaOH FMP dye: made up as per manufacturers' instructions in low chloride extracellular solution detailed above, at 10× final concentration, and stored as 1 mL aliquots at −20° C.
CFTR activity can also be quantified electrophysiologically using the whole-cell configuration of the patch clamp technique (Hamill et al Pflugers Acrhive 1981). This assay directly measures the currents associated with chloride flow through CFTR channels whilst either maintaining or adjusting the transmembrane voltage. This assay can use either single glass micropipettes or parallel planar arrays to measure CFTR activity from native or recombinant cell systems. Currents measured using parallel planar arrays can be quantified using an appropriately equipped instrument such as the IonWorks Quattro (Molecular Devices) or the Qpatch (Sophion). The Quattro system can measure CFTR currents from either a single cell per recording well (HT configuration) or alternatively from a population of 64 cells per well (Population Patch Clamp PPC) (Finkel A, Wittel A, Yang N, Handran S, Hughes J, Costantin J. ‘Population patch clamp improves data consistency and success rates in the measurement of ionic currents.’ J Biomol Screen. 2006 August; 11(5):488-96).
Chinese hamster ovary (CHO) cells stably expressing the ΔF508-CFTR channel were used for IonWorks Quattro experiments. […]

Chain of ΔF508-CFTR (P13569 other isoform, or with tags, fused parts or gaps del F508-F508): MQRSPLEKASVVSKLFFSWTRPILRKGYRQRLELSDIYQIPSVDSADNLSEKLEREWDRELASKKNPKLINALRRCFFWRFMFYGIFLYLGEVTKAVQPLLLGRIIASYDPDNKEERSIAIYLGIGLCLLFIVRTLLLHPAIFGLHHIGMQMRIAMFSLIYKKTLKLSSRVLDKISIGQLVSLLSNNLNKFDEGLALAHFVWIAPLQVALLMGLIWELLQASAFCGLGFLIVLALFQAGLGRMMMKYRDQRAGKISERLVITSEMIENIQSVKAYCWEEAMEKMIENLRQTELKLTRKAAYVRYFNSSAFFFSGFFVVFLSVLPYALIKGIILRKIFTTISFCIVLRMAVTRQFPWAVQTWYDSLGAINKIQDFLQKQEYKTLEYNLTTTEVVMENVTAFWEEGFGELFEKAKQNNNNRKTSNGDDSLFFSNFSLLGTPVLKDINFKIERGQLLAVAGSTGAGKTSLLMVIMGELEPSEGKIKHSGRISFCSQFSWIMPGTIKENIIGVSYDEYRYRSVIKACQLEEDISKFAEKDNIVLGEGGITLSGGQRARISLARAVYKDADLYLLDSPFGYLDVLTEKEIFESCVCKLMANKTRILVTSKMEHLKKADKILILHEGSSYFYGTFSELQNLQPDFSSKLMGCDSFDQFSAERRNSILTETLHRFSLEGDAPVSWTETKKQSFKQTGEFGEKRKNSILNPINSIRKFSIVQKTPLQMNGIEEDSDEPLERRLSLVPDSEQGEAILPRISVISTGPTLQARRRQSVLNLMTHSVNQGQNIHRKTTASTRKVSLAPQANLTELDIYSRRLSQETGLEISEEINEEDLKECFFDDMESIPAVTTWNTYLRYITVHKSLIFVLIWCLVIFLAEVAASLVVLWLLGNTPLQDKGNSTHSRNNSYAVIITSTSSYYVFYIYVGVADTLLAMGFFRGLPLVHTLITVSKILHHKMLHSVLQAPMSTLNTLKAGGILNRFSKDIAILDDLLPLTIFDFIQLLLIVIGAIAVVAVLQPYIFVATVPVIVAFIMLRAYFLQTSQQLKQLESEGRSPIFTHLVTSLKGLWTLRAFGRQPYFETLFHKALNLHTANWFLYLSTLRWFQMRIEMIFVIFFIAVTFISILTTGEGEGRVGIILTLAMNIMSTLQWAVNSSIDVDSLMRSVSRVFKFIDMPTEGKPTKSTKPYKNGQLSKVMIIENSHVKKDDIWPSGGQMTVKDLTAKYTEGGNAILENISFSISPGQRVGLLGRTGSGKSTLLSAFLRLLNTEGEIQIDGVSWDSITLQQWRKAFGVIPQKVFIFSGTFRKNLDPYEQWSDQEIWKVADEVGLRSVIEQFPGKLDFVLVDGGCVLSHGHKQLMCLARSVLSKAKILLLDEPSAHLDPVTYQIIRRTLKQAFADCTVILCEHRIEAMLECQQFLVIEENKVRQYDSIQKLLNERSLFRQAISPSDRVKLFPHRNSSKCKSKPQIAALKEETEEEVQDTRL

pEC50	SMILES
7.05	CC(O)(CNC(=O)c1nc(-c2ccc(Cl)cc2Cl)c(C(F)(F)F)cc1N)C(F)(F)F (single isomer, unassigned) [Example 9, 3-Amino-6-(2,4-dichloro-phenyl)-5-trifluoromethyl-pyridine-2-carboxylic acid (3,3,3-trifluoro-2-hydroxy-2-methyl-propyl)-amide]
6.95	CC(O)(CNC(=O)c1nc(-c2ccc(Cl)cc2Cl)c(C(F)(F)F)cc1N)C(F)(F)F (single isomer, unassigned) [Example 10, 3-Amino-6-(2,4-dichloro-phenyl)-5-trifluoromethyl-pyridine-2-carboxylic acid (3,3,3-trifluoro-2-hydroxy-2-methyl-propyl)-amide]
7.30	COc1nc(C(=O)NC[C@](C)(O)C(F)(F)F)c(N)cc1C(F)(F)F [Example 5, 3-Amino-6-methoxy-5-trifluoromethyl-pyridine-2-carboxylic acid ((S)-3,3,3-trifluoro-2-hydroxy-2-methyl-propyl)-amide]
6.37	COc1nc(C(=O)NC[C@@](C)(O)C(F)(F)F)c(N)cc1C(F)(F)F [Example 6, 3-Amino-6-methoxy-5-trifluoromethyl-pyridine-2-carboxylic acid ((R)-3,3,3-trifluoro-2-hydroxy-2-methyl-propyl)-amide]

same assay, conditions: data measurements described above; read-out: CFTR EC50

SMILES	pEC50
CN(C)S(=O)(=O)c1cccc(-c2nc(C(=O)NCC(=O)c3ccc(F)cc3)c(N)cc2C(F)(F)F)c1 [3-amino-6-(3-(N, N-dimethylsulfamoyl)phenyl)-N-(2-(4-fluorophenyl)-2-oxoethyl)-5-(trifluoromethyl)picolinamide]	< 5.30
Cc1cc(C(N)=O)ccc1-c1nc(C(=O)NCC(=O)c2ccc(F)cc2)c(N)cc1C(F)(F)F [3-amino-6-(4-carbamoyl-2-methylphenyl)-N-(2-(4-fluorophenyl)-2-oxoethyl)-5-(trifluoromethyl)picolinamide]	< 5.30
CN(C)CCCOc1ccc(-c2nc(C(=O)NCC(=O)c3ccc(F)cc3)c(N)nc2C(F)(F)F)cn1 [3-amino-6-(6-(3-(dimethylamino)propoxy)pyridin-3-yl)-N-(2-(4-fluorophenyl)-2-oxoethyl)-5-(trifluoromethyl)pyrazine-2-carboxamide]	< 5.30
Nc1nc(C(F)(F)F)c(Br)nc1C(=O)NCCc1ccncc1 [3-amino-6-bromo-N-(2-(pyridin-4-yl)ethyl)-5-(trifluoromethyl)pyrazine-2-carboxamide]	< 5.30
Cn1cnc(CNC(=O)c2nc(Br)c(C(F)(F)F)nc2N)c1 [3-amino-6-bromo-N-((1-methyl-1H-imidazol-4-yl)methyl)-5-(trifluoromethyl)pyrazine-2-carboxamide]	< 5.30
Nc1nc(C(F)(F)F)c(Br)nc1C(=O)NCc1cn2ccccc2n1 [3-amino-6-bromo-N-(imidazo[1,2-a]pyridin-2-ylmethyl)-5-(trifluoromethyl)pyrazine-2-carboxamide]	< 5.30
Nc1nc(C(F)(F)F)c(Br)nc1C(=O)NCc1ncn2ccccc12 [3-amino-6-bromo-N-(imidazo[1,5-a]pyridin-1-ylmethyl)-5-(trifluoromethyl)pyrazine-2-carboxamide]	< 5.30
CC(C)CN(C)C(=O)c1nc(Br)c(C(F)(F)F)nc1N [3-amino-6-bromo-N-isobutyl-N-methyl-5-(trifluoromethyl)pyrazine-2-carboxamide]	< 5.30
CC(O)(CNC(=O)c1nc(O)c(C(F)(F)F)cc1N)C(F)(F)F (centres unmarked) [3-amino-6-hydroxy-N-(3,3,3-trifluoro-2-hydroxy-2-methylpropyl)-5-(trifluoromethyl)picolinamide]	< 5.30
Cn1ccc2ccc(-c3nc(C(=O)NCC(=O)c4ccc(F)cc4)c(N)cc3C(F)(F)F)cc21 [3-amino-N-(2-(4-fluorophenyl)-2-oxoethyl)-6-(1-methyl-1H-indol-6-yl)-5-(trifluoromethyl)picolinamide]	< 5.30
CN(Cc1ccccc1)C(=O)c1nc(Br)c(C(F)(F)F)nc1N [3-amino-N-benzyl-6-bromo-N-methyl-5-(trifluoromethyl)pyrazine-2-carboxamide]	< 5.30
Cc1ccc(C)n1-c1cc(C(F)(F)F)c(On2nnc3cccnc32)nc1C(=O)NCC(C)(O)C(F)(F)F (centres unmarked) [6-((3H-[1,2,3]triazolo[4,5-b]pyridin-3-yl)oxy)-3-(2,5-dimethyl-1H-pyrrol-1-yl)-N-(3,3,3-trifluoro-2-hydroxy-2-methylpropyl)-5-(trifluoromethyl)picolinamide]	< 5.30
CNc1cc(C(F)(F)F)c(Br)nc1C(=O)NCC(C)(O)C(F)(F)F (centres unmarked) [6-bromo-3-(methylamino)-N-(3,3,3-trifluoro-2-hydroxy-2-methylpropyl)-5-(trifluoromethyl)picolinamide]	< 5.30
CN1CCN[C@H](CNC(=O)c2nc(Br)c(C(F)(F)F)nc2N)C1 [(R)-3-amino-6-bromo-N-((4-methylpiperazin-2-yl)methyl)-5-(trifluoromethyl)pyrazine-2-carboxamide]	< 5.30

More lines, now with the values ahead:

pEC50	SMILES
< 5.30	Nc1cc(C(F)(F)F)c(Br)nc1C(=O)NCC(=O)O [2-(3-amino-6-bromo-5-(trifluoromethyl)picolinamido)acetic acid]
< 5.30	Cc1ccc(-c2nc(C(=O)NCC(=O)c3ccc(F)cc3)c(N)cc2C(F)(F)F)cc1C [3-amino-6-(3,4-dimethylphenyl)-N-(2-(4-fluorophenyl)-2-oxoethyl)-5-(trifluoromethyl)picolinamide]
< 5.30	Nc1nc(C(F)(F)F)c(Br)nc1C(=O)NCCc1cccnc1 [3-amino-6-bromo-N-(2-(pyridin-3-yl)ethyl)-5-(trifluoromethyl)pyrazine-2-carboxamide]
< 5.30	Cn1ccnc1CNC(=O)c1nc(Br)c(C(F)(F)F)nc1N [3-amino-6-bromo-N-((1-methyl-1H-imidazol-2-yl)methyl)-5-(trifluoromethyl)pyrazine-2-carboxamide]
< 5.30	Cn1cncc1CNC(=O)c1nc(Br)c(C(F)(F)F)nc1N [3-amino-6-bromo-N-((1-methyl-1H-imidazol-5-yl)methyl)-5-(trifluoromethyl)pyrazine-2-carboxamide]
< 5.30	Cn1ccc(CNC(=O)c2nc(Br)c(C(F)(F)F)nc2N)n1 [3-amino-6-bromo-N-((1-methyl-1H-pyrazol-3-yl)methyl)-5-(trifluoromethyl)pyrazine-2-carboxamide]
< 5.30	Cn1nccc1CNC(=O)c1nc(Br)c(C(F)(F)F)nc1N [3-amino-6-bromo-N-((1-methyl-1H-pyrazol-5-yl)methyl)-5-(trifluoromethyl)pyrazine-2-carboxamide]
< 5.30	Nc1cc(C(F)(F)F)c(-c2ccc3c(c2)CCNC3=O)nc1C(=O)NCC(=O)c1ccc(F)cc1 [3-amino-N-(2-(4-fluorophenyl)-2-oxoethyl)-6-(1-oxo-1,2,3,4-tetrahydroisoquinolin-6-yl)-5-(trifluoromethyl)picolinamide]
< 5.30	CN1CCN(C(=O)c2nc(Br)c(C(F)(F)F)nc2N)CC1c1ccccc1 (centres unmarked) [(3-amino-6-bromo-5-(trifluoromethyl)pyrazin-2-yl)(4-methyl-3-phenylpiperazin-1-yl)methanone]
< 5.30	CN1CCN(C(=O)c2nc(Br)c(C(F)(F)F)nc2N)CC1 [(3-amino-6-bromo-5-(trifluoromethyl)pyrazin-2-yl)(4-methylpiperazin-1-yl)methanone]
< 5.30	CCN1CCC[C@H]1CNC(=O)c1nc(Br)c(C(F)(F)F)nc1N [(S)-3-amino-6-bromo-N-((1-ethylpyrrolidin-2-yl)methyl)-5-(trifluoromethyl)pyrazine-2-carboxamide]
